In assay [1] the target is FLNA pentapeptide of SEQ ID NO: 1 (Bn-VAKGL) (Homo sapiens, UniProt P21333). In words: FITC-NLX-based FLNA screening assay (inhibition of FITC-naloxone binding to Bn-VAKGL on streptavidin plates). The note with it: 10 nM FITC-NLX.
The next assay concerns mu opiate receptor (MOR). The assay is described as follows: MOR agonist activity using [35S]GTPγS binding assay in striatal membranes. It is filed as biochemical. Conditions: for MOR agonist activity ([35S]GTPγS binding), FLNA-Binding Compound as Agonist 1 μM + BFNA: 1 μM compound + 1 μM β-funaltrexamine. The essentials: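 Striatal membranes (200 μg) were preincubated 5 min at 30 °C in HEPES pH 7.5 with 100 mM NaCl, 1 mM MgCl2 and 0.5 nM [35S]GTPγS, then 5 min more with 0.1–10 μM compound. Gαo was immunoprecipitated and bound radioactivity counted by scintillation.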
In general terms: GTPγS resists hydrolysis and so accumulates on activated G proteins.

Where [2] appears, read: read-out: Percent Binding Inhibition, FLNA-binding compound 0.01 μM.
Where [3] appears, read: read-out: Percent Binding Inhibition, FLNA-binding compound 0.1 μM.
Setting [4] is: read-out: Percent Binding Inhibition, FLNA-binding compound 1 μM.
The mark [5] stands for this setting: Series C-1, 0.1 μM compound, relative to DAMGO.
The mark [6] stands for this setting: Series C-1, 0.1 μM compound, [35S]GTPγS binding to Gαo, striatal membranes.
Setting [7] is: Series C-1, 1 μM compound + 1 μM β-FNA.
The mark [8] stands for this setting: Series C-1, 1 μM compound + β-FNA, relative to DAMGO + BFNA.
[9] abbreviates: Series C-1, 1 μM compound, relative to DAMGO.
Where [10] appears, read: Series C-1, 1 μM compound, [35S]GTPγS binding to Gαo, striatal membranes.
[11] abbreviates: 0.1 μM compound relative to DAMGO.
Setting [12] is: 1 μM compound + BFNA relative to DAMGO + BFNA.
Where [13] appears, read: 1 μM compound relative to DAMGO.
Where [14] appears, read: FLNA-binding compound 0.01 μM, read-out: Percent Binding Inhibition.
Where [15] appears, read: FLNA-binding compound 0.1 μM, read-out: Percent Binding Inhibition.
The mark [16] stands for this setting: FLNA-binding compound 1 μM, read-out: Percent Binding Inhibition.

Read-outs that look alike come from different tables or passages of the source.

Take `CC(C)c1ccc(S(=O)(=O)N2CCC3(CC2)OCCN3S(=O)(=O)c2ccc(C(C)C)cc2)cc1` [Compound C0007]: the inhibition at 0.01 µM in assay [1] (setting [2]) came to 40.5%. Besides, the inhibition at 0.1 µM in assay [1] (setting [3]) amounted to 46.3%. The inhibition at 1 µM in assay [1] (setting [4]) turned out to be 48.9%. The “% DAMGO (0.1 μM)” value in the assay on mu opiate receptor (MOR) (setting [5]) was determined as 46.0%. Also, the “Concentration of FLNA-Binding Compound as Agonist 0.1 μM” value (“Concentration … as Agonist 0.1 μM” below) with mu opiate receptor (MOR) (setting [6]) is given as 79.1%. For the same molecule, the “Concentration of FLNA-Binding Compound as Agonist 1 μM + BFNA” value (shortened to “Concentration … as Agonist 1 μM + BFNA”) with mu opiate receptor (MOR) (setting [7]) is 10.9%. The “% DAMGO + BFNA” value in the assay on mu opiate receptor (MOR) (setting [8]) was determined as 17.0%. Besides, the “% DAMGO (1 μM)” value in the assay with mu opiate receptor (MOR) (setting [9]) worked out at 70.5%. Further, the “Concentration of FLNA-Binding Compound as Agonist 1 μM” value in the assay on mu opiate receptor (MOR) (setting [10]) was determined as 195.0%.
On to `COc1c2c(cc3c1C(CC(=O)Cc1ccccc1C)N(C)CC3)OCO2` (stereo not drawn) [Compound B0053], for which the inhibition at 0.01 µM in assay [1] (setting [2]) is 33.1%. In addition, the inhibition at 0.1 µM in assay [1] (setting [3]) came out at 37.3%. Besides, the inhibition at 1 µM in assay [1] (setting [4]) turned out to be 47.6%. Also, the “% DAMGO (0.1 μM)” value with mu opiate receptor (MOR) (Series B, 0.1 μM compound, relative to DAMGO) turned out to be 94.8%. Besides, the “MOR agonist activity, percent [35S]GTPγS binding at the stated compound concentration” value in the assay with mu opiate receptor (MOR) (Series B, 0.1 μM compound, [35S]GTPγS binding to Gαo, striatal membranes) amounted to 160.2%; in the assay with mu opiate receptor (MOR) (Series B, 1 μM compound + 1 μM β-FNA), 134.3%; in the assay on mu opiate receptor (MOR) (Series B, 1 μM compound, [35S]GTPγS binding to Gαo, striatal membranes) it was 299.8%. Further, the “% DAMGO + BFNA” value in the assay with mu opiate receptor (MOR) (Series B, 1 μM compound + β-FNA, relative to DAMGO + BFNA) was 809.0%. In the assay on mu opiate receptor (MOR) (Series B, 1 μM compound, relative to DAMGO), the “% DAMGO (1 μM)” value turned out to be 137.0%.
In the case of `CC1CCC(C(C)C)C(OCC(O)CN(C(C)C)C(C)C)C1` (stereo not drawn) [Compound A0037], in assay [1] (setting [2]), the inhibition at 0.01 µM turned out to be 49.3%. Further, the inhibition at 0.1 µM in assay [1] (setting [3]) came to 51.3%. Further, in assay [1] (setting [4]), the inhibition at 1 µM turned out to be 56.8%. The “MOR agonist activity ([35S]GTPγS binding), FLNA-Binding Compound as Agonist 0.1 μM” value with mu opiate receptor (MOR) (0.1 μM compound) is 177.9%. Moreover, in the assay on mu opiate receptor (MOR) (setting [11]), the “% DAMGO (0.1 μM)” value is listed as 90.7%. Further, the “MOR agonist activity ([35S]GTPγS binding), FLNA-Binding Compound as Agonist 1 μM” value in the assay on mu opiate receptor (MOR) (1 μM compound) came to 236.2%. Further, in the assay on mu opiate receptor (MOR), the “MOR agonist activity ([35S]GTPγS binding), FLNA-Binding Compound as Agonist 1 μM + BFNA” value came out at 104.6%. Further, the “% DAMGO + BFNA” value with mu opiate receptor (MOR) (setting [12]) was determined as 141.5%. Also, in the assay with mu opiate receptor (MOR) (setting [13]), the “% DAMGO (1 μM)” value is given as 85.6%.
On to `COc1ccc(S(=O)(=O)N2CCC3(CC2)NCCO3)cc1` [Compound C0026], for which, in assay [1] (setting [14]), the inhibition at 0.01 µM came to 42.3%. The inhibition at 0.1 µM in assay [1] (setting [15]) stood at 44.8%. Moreover, in assay [1] (setting [16]), the inhibition at 1 µM stood at 49%. In addition, the “% DAMGO (0.1 μM)” value in the assay on mu opiate receptor (MOR) (Series C-2, 0.1 μM compound, relative to DAMGO) was determined as 107.7%. Besides, the “MOR agonist activity, percent [35S]GTPγS binding at the stated compound concentration” value was 207.2% in the assay on mu opiate receptor (MOR) (Series C-2, 0.1 μM compound, [35S]GTPγS binding to Gαo, striatal membranes); 21.2% in the assay with mu opiate receptor (MOR) (Series C-2, 1 μM compound + 1 μM β-FNA); 288.4% in the assay with mu opiate receptor (MOR) (Series C-2, 1 μM compound, [35S]GTPγS binding to Gαo, striatal membranes). Besides, the “% DAMGO + BFNA” value with mu opiate receptor (MOR) (Series C-2, 1 μM compound + β-FNA, relative to DAMGO + BFNA) was determined as 48.3%. Besides, in the assay with mu opiate receptor (MOR) (Series C-2, 1 μM compound, relative to DAMGO), the “% DAMGO (1 μM)” value is 105.6%.
As for `OC(COc1cccc(F)c1)CN1CCc2ccccc2C1` (stereo not drawn) [Compound A0055], in assay [1] (setting [14]), the inhibition at 0.01 µM stood at 28.1%. Moreover, the inhibition at 0.1 µM in assay [1] (setting [15]) stood at 32.4%. The inhibition at 1 µM in assay [1] (setting [16]) amounted to 41.8%. The “MOR agonist activity ([35S]GTPγS binding), FLNA-Binding Compound as Agonist 0.1 μM” value in the assay with mu opiate receptor (MOR) (0.1 μM compound) was 89.8%. Further, the “% DAMGO (0.1 μM)” value in the assay on mu opiate receptor (MOR) (setting [11]) is 53.2%. In addition, the “MOR agonist activity ([35S]GTPγS binding), FLNA-Binding Compound as Agonist 1 μM” value with mu opiate receptor (MOR) (1 μM compound) is 195.2%. The “MOR agonist activity ([35S]GTPγS binding), FLNA-Binding Compound as Agonist 1 μM + BFNA” value with mu opiate receptor (MOR) worked out at 33.5%. Besides, the “% DAMGO + BFNA” value with mu opiate receptor (MOR) (setting [12]) stood at 102.4%. Also, in the assay on mu opiate receptor (MOR) (setting [13]), the “% DAMGO (1 μM)” value stood at 78.4%.
Consider `N#Cc1ccc(S(=O)(=O)N2CCC3(CC2)OCCN3S(=O)(=O)c2ccc(C#N)cc2)cc1` [Compound C0008], for which the inhibition at 0.01 µM in assay [1] (setting [14]) stood at 42.2%. In addition, the inhibition at 0.1 µM in assay [1] (setting [15]) came out at 52.3%. Besides, the inhibition at 1 µM in assay [1] (setting [16]) was 54.4%. In the assay on mu opiate receptor (MOR) (setting [5]), the “% DAMGO (0.1 μM)” value is listed as 41.4%. For the same molecule, the “Concentration … as Agonist 0.1 μM” value with mu opiate receptor (MOR) (setting [6]) was found to be 71.2%. In addition, the “Concentration … as Agonist 1 μM + BFNA” value in the assay on mu opiate receptor (MOR) (setting [7]) is 2.8%. Further, in the assay with mu opiate receptor (MOR) (setting [8]), the “% DAMGO + BFNA” value was found to be 4.4%. The “% DAMGO (1 μM)” value in the assay with mu opiate receptor (MOR) (setting [9]) is 72.9%. In addition, the “Concentration of FLNA-Binding Compound as Agonist 1 μM” value in the assay with mu opiate receptor (MOR) (setting [10]) is on record as 201.6%.
Turning to `CS(=O)(=O)c1ccc(S(=O)(=O)N2CCC3(CC2)OCCN3S(=O)(=O)c2ccc(S(C)(=O)=O)cc2)cc1` [Compound C0009], the inhibition at 0.01 µM in assay [1] (setting [2]) worked out at 41.7%. Also, the inhibition at 0.1 µM in assay [1] (setting [3]) came to 49%. For the same molecule, in assay [1] (setting [4]), the inhibition at 1 µM turned out to be 53.9%. In addition, the “% DAMGO (0.1 μM)” value in the assay with mu opiate receptor (MOR) (setting [5]) stood at 85.1%. In addition, the “Concentration … as Agonist 0.1 μM” value with mu opiate receptor (MOR) (setting [6]) was 146.3%. Further, the “Concentration … as Agonist 1 μM + BFNA” value with mu opiate receptor (MOR) (setting [7]) was found to be 26.4%. Further, in the assay on mu opiate receptor (MOR) (setting [8]), the “% DAMGO + BFNA” value turned out to be 41.2%. Further, the “% DAMGO (1 μM)” value in the assay with mu opiate receptor (MOR) (setting [9]) was 92.6%. Also, in the assay on mu opiate receptor (MOR) (setting [10]), the “Concentration of FLNA-Binding Compound as Agonist 1 μM” value was determined as 256.2%.

One may read the inhibition as the share of the control response that was lost under treatment.

These data come from patent US10363239B2, “Method for inhibiting growth of cancer cells” (Pain Therapeutics, Inc., priority 2013, dated 2019).
